# Assay results taken from US10287267B2, “Isoquinolin-3-yl carboxamides and preparation and use thereof” (Samumed, LLC, priority 2016, dated 2019).
# How the values were obtained:
# [1] = system: α-smooth muscle actin (αSMA) positive LL29 cells; experiment: Inhibition of fibrotic process: αSMA in TGF-β1 treated primary human fibroblasts from IPF patients; type: cell-based; conditions: Homo sapiens, Fibroblast; for EC50: 96 h, Table 8, LL29 fibroblasts from IPF patients, TGF-β1 20 ng/mL, 4 days, dose-response 10 μM to 0.94 nM; for inhibition at 10 µM: read-out: percent value in parentheses beside EC50 >10 μM;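 on all read-outs here: controls were TGF-β1 stimulated wells with DMSO vehicle (positive) and cells given DMSO alone (negative), cultured in F12 medium with 1% fetal bovine serum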
# [2] = system: SW480 colon carcinoma cells; experiment: Cell viability assay (CellTiter-Glo); type: cell-based, human; conditions: Homo sapiens; for EC50: 96 h, SW480 cells, CellTiter-Glo, four days incubation; for inhibition at 10 µM: SW480, read-out: percent inhibition at 10 μM
# [3] = system: IL-6; experiment: IL-6 inhibition in LPS-stimulated human peripheral blood mononuclear cells (HTRF); type: cell-based; conditions: Homo sapiens, PBMC; for inhibition at 10 µM: read-out: percent value in parentheses beside EC50 >10 μM; for EC50: Table 9, huPBMCs, LPS 50 ng/mL, 22 hours, dose-response starting from 10 μM;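 on all read-outs here: IL-6 detected by HTRF with an XL665- and Cryptate-labelled anti-IL-6 antibody pair, samples run in duplicate, EC50 obtained from a four-parameter Levenberg-Marquardt curve fit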
# Description: After 22 hour incubation, a mixture of anti-IL6 XL665 and anti-IL-6 Cryptate diluted in reconstitution buffer (Catalog #62IL6PEC, Cisbio Inc., Bedford, Mass.) was added to each well. […] All samples were processed in duplicate. […] EC50 was determined using software generated by Dotmatics Limited (Windhill Bishops Stortford Herts, UK) using the Levenberg-Marquardt 4 parameter fitting procedure with finite different gradients.
# [4] = system: Wnt pathway (Sp5-Luc reporter, TCF/LEF binding sites) in SW480 colon carcinoma cells; experiment: Screening assay for Wnt activity: Sp5-Luc reporter gene assay; type: cell-based, human; conditions: Homo sapiens; for inhibition at 10 µM: SW480, read-out: percent inhibition at 10 μM; for EC50: Sp5-Luc reporter, SW480 cells, 36 to 48 hours;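 on all read-outs here: firefly luciferase luminescence read in stably transduced SW480 cells carrying the Sp5 promoter reporter with eight TCF/LEF sites, compounds given in 0.1% DMSO final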
# Description: The screening assay for Wnt activity is described as follows.
# Following incubation, 15 μl of BriteLite Plus luminescence reagent (Perkin Elmer) was added to each well of the 384-well assay plates. The plates were placed on an orbital shaker for 2 min and then luminescence was quantified using the Envision (Perkin Elmer) plate reader.
# [5] = target: recombinant GSK3β kinase (Homo sapiens (Human), UniProt P49841); experiment: GSK3β kinase assay (Ser/Thr 09 peptide Z-lyte FRET); type: biochemical; conditions: 46 μM ATP, 1 h room temperature;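 further: kinase activity read as coumarin to fluorescein emission ratio, 11-point threefold dilutions from 10 µM to 0.0003 µM in duplicate, unphosphorylated and phosphorylated peptide as 0% and 100% controls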
# [6] = target: recombinant DYRK1A kinase (Homo sapiens (Human), UniProt Q13627); experiment: DYRK1A kinase assay (Ser/Thr 18 peptide Z-lyte FRET); type: biochemical; conditions: 30 μM ATP, 1 h room temperature;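 further: Read-out is the coumarin to fluorescein emission ratio, referenced to unphosphorylated (0%) and phosphorylated (100%) Ser/Thr 18 peptide controls, values from dose-response curves by non-linear regression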
# [7] = system: Tau phosphorylation at Ser396 (pSer396); experiment: Tau phosphorylation assay (pSer396 ELISA / western blot) in SH-SY5Y cells; type: cell-based, human; conditions: Homo sapiens; SH-SY5Y cells, overnight (16-18 h) exposure; read-out: pSer396 Tau EC50;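 further: EC50 for reduction of Tau pSer396 in lysed cells, measured by colorimetric ELISA or chemiluminescent western blot, both using the same pSer396 antibody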
# Chain of recombinant GSK3β kinase (P49841 whole entry): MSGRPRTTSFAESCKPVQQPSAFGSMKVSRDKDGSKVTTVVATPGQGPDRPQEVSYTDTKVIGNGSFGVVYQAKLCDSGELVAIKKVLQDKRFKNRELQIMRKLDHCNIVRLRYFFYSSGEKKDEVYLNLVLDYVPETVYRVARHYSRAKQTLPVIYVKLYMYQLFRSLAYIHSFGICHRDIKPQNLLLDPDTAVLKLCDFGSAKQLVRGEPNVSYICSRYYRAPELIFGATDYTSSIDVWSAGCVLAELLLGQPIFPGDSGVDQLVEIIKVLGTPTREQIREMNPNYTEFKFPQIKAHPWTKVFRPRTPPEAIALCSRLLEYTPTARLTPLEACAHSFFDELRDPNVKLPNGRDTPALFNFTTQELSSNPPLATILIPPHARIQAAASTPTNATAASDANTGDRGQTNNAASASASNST
Structure (SMILES),EC50 [1],inhibition at 10 µM [1],EC50 [2],inhibition at 10 µM [2],inhibition at 10 µM [3],EC50 [3],inhibition at 10 µM [4],EC50 [4],EC50 [5],EC50 [6],EC50 [7]
"Cc1nnc(-c2ccc3cnc(NC(=O)C4(F)CCCCC4)cc3c2)s1 [Compound 883, 1-Fluoro-N-(6-(5-methyl-1,3,4-thiadiazol-2-yl)isoquinolin-3-yl)cyclohexane-1-carboxamide]",> 10 µM,14%,> 10 µM,35.5%,9.1%,> 10 µM,43.2%,> 10 µM,0.076 µM,0.0089 µM,1.1 µM
"CO[C@H]1CC[C@H](C(=O)Nc2cc3cc(-c4nnc(C)s4)ccc3cn2)CC1 [Compound 885, trans-4-Methoxy-N-(6-(5-methyl-1,3,4-thiadiazol-2-yl)isoquinolin-3-yl) cyclohexane-1-carboxamide]",2.62 µM,–,7.72 µM,–,7%,> 10 µM,–,4.48 µM,0.046 µM,0.0346 µM,0.878 µM
"Cc1nnc(-c2ccc3cnc(NC(=O)C4CCN(CCF)CC4)cc3c2)s1 [Compound 900, 1-(2-Fluoroethyl)-N-(6-(5-methyl-1,3,4-thiadiazol-2-yl)isoquinolin-3-yl) piperidine-4-carboxamide]",0.449 µM,–,3.88 µM,–,–,9.86 µM,–,1.01 µM,0.011 µM,0.0029 µM,0.18 µM
"Cc1nnc(-c2ccc3cnc(NC(=O)C4CCN(C(=O)c5ccccc5)CC4)cc3c2)s1 [Compound 921, 1-Benzoyl-N-(6-(5-methyl-1,3,4-thiadiazol-2-yl)isoquinolin-3-yl)piperidine-4-carboxamide]",0.075 µM,–,1.62 µM,–,9.9%,> 10 µM,–,0.779 µM,0.005 µM,0.0021 µM,0.109 µM
"Cc1nnc(-c2ccc3cnc(NC(=O)CN4CCCC4)cc3c2)s1 [Compound 932, N-(6-(5-Methyl-1,3,4-thiadiazol-2-yl)isoquinolin-3-yl)-2-(pyrrolidin-1-yl) acetamide]",0.594 µM,–,5.45 µM,–,7.5%,> 10 µM,–,0.946 µM,0.014 µM,0.0169 µM,0.357 µM
"Cc1nnc(-c2ccc3cnc(NC(=O)CN4CCCCC4)cc3c2)s1 [Compound 939, N-(6-(5-Methyl-1,3,4-thiadiazol-2-yl)isoquinolin-3-yl)-2-(piperidin-1-yl) acetamide]",1.14 µM,–,> 10 µM,31.6%,3.6%,> 10 µM,–,2.07 µM,0.013 µM,0.0139 µM,0.274 µM
"Cc1nnc(-c2ccc3cnc(NC(=O)CN4CCN(C)CC4)cc3c2)s1 [Compound 946, N-(6-(5-Methyl-1,3,4-thiadiazol-2-yl)isoquinolin-3-yl)-2-(4-methylpiperazin-1-yl)acetamide]",0.97 µM,–,> 10 µM,42.6%,18.2%,> 10 µM,–,1.88 µM,0.038 µM,0.023 µM,0.571 µM
"Cc1nnc(-c2ccc3cnc(NC(=O)CN4CCOCC4)cc3c2)s1 [Compound 952, N-(6-(5-Methyl-1,3,4-thiadiazol-2-yl)isoquinolin-3-yl)-2-morpholinoacetamide]",0.741 µM,–,7.09 µM,–,10.1%,> 10 µM,–,1.47 µM,0.008 µM,0.0072 µM,0.269 µM
"Cc1nnc(-c2ccc3cnc(NC(=O)CN4C[C@H]5C[C@@H]4CO5)cc3c2)s1 [Compound 960, 2-((1R,4R)-2-Oxa-5-azabicyclo[2.2.1]heptan-5-yl)-N-(6-(5-methyl-1,3,4-thiadiazol-2-yl)isoquinolin-3-yl)acetamide]",0.957 µM,–,6.67 µM,–,8.2%,> 10 µM,–,1.66 µM,0.015 µM,0.0171 µM,0.233 µM
"Cc1nnc(-c2cc(F)c3cnc(NC(=O)CN4CCOCC4)cc3c2)s1 [Compound 963, N-(8-Fluoro-6-(5-methyl-1,3,4-thiadiazol-2-yl)isoquinolin-3-yl)-2-morpholinoacetamide]",1.19 µM,–,> 10 µM,49.2%,8.2%,> 10 µM,–,1.2 µM,0.006 µM,0.0267 µM,0.252 µM
"Cn1cc(-c2ccc3cnc(NC(=O)C4CCN(S(=O)(=O)c5ccccc5)CC4)cc3c2)cn1 [Compound 964, N-(6-(1-Methyl-1H-pyrazol-4-yl)isoquinolin-3-yl)-1-(phenylsulfonyl) piperidine-4-carboxamide]",> 10 µM,19.7%,3.83 µM,–,6.8%,> 10 µM,–,1.45 µM,0.102 µM,0.0052 µM,0.576 µM
"[2H]C([2H])([2H])N1CCN(CC(=O)Nc2cc3cc(-c4cnn(C)c4)ccc3cn2)CC1 [Compound 965, N-(6-(1-Methyl-1H-pyrazol-4-yl)isoquinolin-3-yl)-2-(4-(methyl-d3)piperazin-1-yl)acetamide]",1.37 µM,–,8.63 µM,–,–,3.26 µM,–,3.18 µM,0.079 µM,0.0106 µM,1 µM
"CCN1CCC(C(=O)Nc2cc3cc(-c4cnn(C)c4)c(F)cc3cn2)CC1 [Compound 967, 1-Ethyl-N-(7-fluoro-6-(1-methyl-1H-pyrazol-4-yl)isoquinolin-3-yl) piperidine-4-carboxamide]",0.079 µM,–,0.459 µM,–,–,1.13 µM,–,4.42 µM,0.046 µM,0.0019 µM,0.373 µM
"CN1CCN(CC(=O)Nc2cc3cc(-c4cnn(C)c4)cc(F)c3cn2)CC1 [Compound 968, N-(8-Fluoro-6-(1-methyl-1H-pyrazol-4-yl)isoquinolin-3-yl)-2-(4-methylpiperazin-1-yl)acetamide]",> 10 µM,24.1%,> 10 µM,14.5%,–,9.24 µM,38%,> 10 µM,0.061 µM,0.0314 µM,2.7 µM
"CN1CCC(C(=O)Nc2cc3cc(-c4cnsc4)ccc3cn2)CC1 [Compound 970, N-(6-(Isothiazol-4-yl)isoquinolin-3-yl)-1-methylpiperidine-4-carboxamide]",1.24 µM,–,1.26 µM,–,–,1.13 µM,–,1.36 µM,0.478 µM,0.0023 µM,0.862 µM
"[2H]C([2H])([2H])n1cc(-c2ccc3cnc(NC(=O)[C@H](C)N4CCCC4)cc3c2)cn1 [Compound 971, (S)—N-(6-(1-(methyl-d3)-1H-pyrazol-4-yl)isoquinolin-3-yl)-2-(pyrrolidin-1-yl)propanamide]",0.866 µM,–,1.2 µM,–,–,1.22 µM,–,0.72 µM,0.034 µM,0.0342 µM,0.191 µM
"O=C(Nc1cc2cc(-c3cnco3)ccc2cn1)C1CC1 [Compound 973, N-(6-(Oxazol-5-yl)isoquinolin-3-yl)cyclopropanecarboxamide]",0.134 µM,–,0.391 µM,–,–,0.395 µM,–,0.609 µM,0.02 µM,0.0029 µM,0.102 µM
"O=C(Nc1cc2cc(-c3cnco3)ccc2cn1)[C@H]1CCCO1 [Compound 974, (R)—N-(6-(Oxazol-5-yl)isoquinolin-3-yl)tetrahydrofuran-2-carboxamide]",> 10 µM,49.6%,3.16 µM,–,45.9%,> 10 µM,–,3.74 µM,0.096 µM,0.0135 µM,2 µM
"O=C(Nc1cc2cc(-c3cnco3)ccc2cn1)[C@@H]1CCCNC1 [Compound 975, (R)—N-(6-(Oxazol-5-yl)isoquinolin-3-yl)piperidine-3-carboxamide]",0.138 µM,–,0.334 µM,–,–,0.425 µM,–,0.423 µM,1.09 µM,0.012 µM,4.6 µM
"O=C(Nc1cc2cc(-c3cnco3)ccc2cn1)C1CCN(C(=O)CN2CCCC2)CC1 [Compound 977, N-(6-(Oxazol-5-yl)isoquinolin-3-yl)-1-(2-(pyrrolidin-1-yl)acetyl)piperidine-4-carboxamide]",0.136 µM,–,0.615 µM,–,–,0.404 µM,–,0.875 µM,0.246 µM,0.0032 µM,0.426 µM
"CN1CCC(N2CCC(C(=O)Nc3cc4cc(-c5cnco5)ccc4cn3)CC2)CC1 [Compound 978, 1′-Methyl-N-(6-(oxazol-5-yl)isoquinolin-3-yl)-[1,4′-bipiperidine]-4-carboxamide]",0.722 µM,–,1.58 µM,–,–,3.36 µM,–,2.22 µM,0.22 µM,0.0039 µM,0.274 µM
